ChEMBL document CHEMBL5108044, “Discovery of a Novel Potent STAT3 Inhibitor HP590 with Dual p-Tyr705/Ser727 Inhibitory Activity for Gastric Cancer Treatment” (J Med Chem, 2022)
Active and inactive are the calls of the source. No cut-off for these calls is given here.

What was measured:
[1] = Toxicity in BALB/c nude mouse xenografted with human MKN-45 cells assessed as liver damage at 25 to 50 mg/kg, po qd administered for 5 weeks by H and E staining based analysis; assay type: organism-based; details: in vivo, 840 h, dose 25-50 mg/kg
[2] = target: T1, Signal transducer and activator of transcription 3 (Homo sapiens, UniProt P40763); experiment: Inhibition of STAT3 phosphorylation at Ser727 residue in human MKN-45 cells upto 40 nM incubated upto 24 hrs by Western blotting analysis; assay type: cell-based
T1 sequence (P40763 whole entry): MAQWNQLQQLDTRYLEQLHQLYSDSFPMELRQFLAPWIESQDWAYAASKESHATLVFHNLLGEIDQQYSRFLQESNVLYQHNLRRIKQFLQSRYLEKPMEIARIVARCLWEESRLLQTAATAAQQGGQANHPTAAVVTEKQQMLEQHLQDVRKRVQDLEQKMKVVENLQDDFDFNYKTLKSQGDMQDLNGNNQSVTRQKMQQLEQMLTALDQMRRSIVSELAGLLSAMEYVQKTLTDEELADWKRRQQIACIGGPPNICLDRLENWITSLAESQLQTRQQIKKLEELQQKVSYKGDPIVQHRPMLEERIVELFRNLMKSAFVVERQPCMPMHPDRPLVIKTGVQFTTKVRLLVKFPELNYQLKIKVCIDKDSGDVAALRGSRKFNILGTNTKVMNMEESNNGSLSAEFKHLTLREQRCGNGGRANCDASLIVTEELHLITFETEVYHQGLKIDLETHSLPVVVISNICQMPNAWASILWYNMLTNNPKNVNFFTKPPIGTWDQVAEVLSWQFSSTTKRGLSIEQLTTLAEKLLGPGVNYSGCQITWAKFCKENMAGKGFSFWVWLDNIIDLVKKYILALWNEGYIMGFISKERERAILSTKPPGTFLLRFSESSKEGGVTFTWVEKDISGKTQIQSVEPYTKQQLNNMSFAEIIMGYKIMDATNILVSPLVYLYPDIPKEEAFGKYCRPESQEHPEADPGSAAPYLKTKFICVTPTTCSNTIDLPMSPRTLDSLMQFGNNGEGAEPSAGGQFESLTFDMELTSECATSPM

[3] = target: T1, Signal transducer and activator of transcription 3; experiment: Inhibition of STAT3 phosphorylation at Tyr705 residue in human AGS cells incubated upto 24 hrs by Western blotting analysis; assay type: cell-based; details: dose <= 40.0 nM, DDE = dose-dependent effect
[4] = target: T1, Signal transducer and activator of transcription 3; experiment: Inhibition of STAT3 phosphorylation at Tyr705 residue in human MGC-803 cells incubated upto 24 hrs by Western blotting analysis; assay type: cell-based; details: dose <= 40.0 nM, DDE = dose-dependent effect
[5] = target: T1, Signal transducer and activator of transcription 3; experiment: Inhibition of STAT3 phosphorylation at Ser727 residue in human MGC-803 cells upto 40 nM by Western blotting analysis; assay type: cell-based; details: time <= 24.0 hrs, TDE = time-dependent effect
[6] = target: Tyrosine-protein kinase JAK2 (Homo sapiens, UniProt O60674); experiment: Inhibition of JAK2 (unknown origin)
Chain of Tyrosine-protein kinase JAK2 (O60674 whole entry): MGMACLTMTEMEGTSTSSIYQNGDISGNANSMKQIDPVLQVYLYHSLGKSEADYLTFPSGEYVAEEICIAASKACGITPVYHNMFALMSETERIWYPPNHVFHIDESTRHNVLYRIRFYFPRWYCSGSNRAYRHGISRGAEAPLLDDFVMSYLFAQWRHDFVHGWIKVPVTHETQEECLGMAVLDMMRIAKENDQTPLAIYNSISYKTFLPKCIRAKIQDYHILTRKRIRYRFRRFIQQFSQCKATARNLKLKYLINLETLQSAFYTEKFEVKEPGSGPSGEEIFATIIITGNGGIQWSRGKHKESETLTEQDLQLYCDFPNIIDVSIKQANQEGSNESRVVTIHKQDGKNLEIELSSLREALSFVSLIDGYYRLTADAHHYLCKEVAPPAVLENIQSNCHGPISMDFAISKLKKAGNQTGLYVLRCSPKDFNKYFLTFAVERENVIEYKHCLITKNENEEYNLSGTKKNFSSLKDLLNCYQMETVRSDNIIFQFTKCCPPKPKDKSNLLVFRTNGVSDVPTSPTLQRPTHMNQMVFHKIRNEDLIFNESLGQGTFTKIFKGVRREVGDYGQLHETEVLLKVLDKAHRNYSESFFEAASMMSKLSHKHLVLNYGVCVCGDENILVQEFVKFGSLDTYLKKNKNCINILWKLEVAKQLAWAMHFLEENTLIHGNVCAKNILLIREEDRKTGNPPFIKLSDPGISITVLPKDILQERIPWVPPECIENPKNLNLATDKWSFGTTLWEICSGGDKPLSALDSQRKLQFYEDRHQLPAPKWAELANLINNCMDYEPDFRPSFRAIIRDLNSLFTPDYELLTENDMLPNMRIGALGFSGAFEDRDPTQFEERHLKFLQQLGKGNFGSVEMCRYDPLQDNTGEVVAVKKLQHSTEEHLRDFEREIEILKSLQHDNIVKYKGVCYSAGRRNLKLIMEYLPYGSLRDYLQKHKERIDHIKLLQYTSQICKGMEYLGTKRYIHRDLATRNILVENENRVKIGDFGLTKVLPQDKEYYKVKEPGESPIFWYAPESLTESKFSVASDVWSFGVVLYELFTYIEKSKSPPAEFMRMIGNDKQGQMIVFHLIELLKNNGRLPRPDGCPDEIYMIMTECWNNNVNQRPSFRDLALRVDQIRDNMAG

[7] = target: Mitogen-activated protein kinase 8 (Homo sapiens, UniProt P45983); experiment: Inhibition of JNK1 (unknown origin)
Chain of Mitogen-activated protein kinase 8 (P45983 whole entry): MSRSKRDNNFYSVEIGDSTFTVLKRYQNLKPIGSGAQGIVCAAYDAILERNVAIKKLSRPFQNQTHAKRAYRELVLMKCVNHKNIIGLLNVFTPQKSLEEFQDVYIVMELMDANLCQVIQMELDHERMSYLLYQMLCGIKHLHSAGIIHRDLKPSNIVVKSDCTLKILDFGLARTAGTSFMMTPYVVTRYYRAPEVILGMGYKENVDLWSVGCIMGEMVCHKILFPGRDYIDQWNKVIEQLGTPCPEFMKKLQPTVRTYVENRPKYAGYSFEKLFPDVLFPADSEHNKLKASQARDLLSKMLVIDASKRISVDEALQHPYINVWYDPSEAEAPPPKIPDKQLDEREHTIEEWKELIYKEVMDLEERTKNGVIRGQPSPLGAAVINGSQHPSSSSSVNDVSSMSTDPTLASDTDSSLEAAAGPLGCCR

[8] = target: T1, Signal transducer and activator of transcription 3; experiment: Inhibition of STAT3 in human MGC-803 cells assessed as downregulation of c-Myc expression incubated up to 24 hrs by western blot analysis; assay type: cell-based; details: dose <= 40.0 nM, DDE = dose-dependent effect
[9] = target: T1, Signal transducer and activator of transcription 3; experiment: Inhibition of STAT3 in human AGS cells assessed as downregulation of cyclin D1 expression incubated up to 24 hrs by western blot analysis; assay type: cell-based; details: dose <= 40.0 nM, DDE = dose-dependent effect
[10] = target: T1, Signal transducer and activator of transcription 3; experiment: Inhibition of STAT3 in human MGC-803 cells assessed as downregulation of c-Myc expression up to 40 nM by western blot analysis; assay type: cell-based; details: time <= 24.0 hrs, DDE = dose-dependent effect
[11] = target: T1, Signal transducer and activator of transcription 3; experiment: Inhibition of STAT3 in human MKN-45 cells assessed as downregulation of c-myc expression at 10 to 40 nM incubated for 24 hrs by RT-PCR analysis; assay type: cell-based; details: dose 10-40 nM
[12] = target: T1, Signal transducer and activator of transcription 3; experiment: Inhibition of STAT3 in human AGS cells assessed as downregulation of cyclin D1 expression at 10 to 40 nM incubated for 24 hrs by RT-PCR analysis; assay type: cell-based; details: dose 10-40 nM
[13] = target: T1, Signal transducer and activator of transcription 3; experiment: Inhibition of STAT3 in human AGS cells assessed as downregulation of Bcl2 expression at 10 to 40 nM incubated for 24 hrs by RT-PCR analysis; assay type: cell-based; details: dose 10-40 nM
[14] = target: T1, Signal transducer and activator of transcription 3; experiment: Inhibition of STAT3 in human GES1cells assessed as downregulation of c-myc expression at 10 to 40 nM incubated for 24 hrs by RT-PCR analysis; assay type: cell-based; details: GES1, dose 10-40 nM
[15] = target: T1, Signal transducer and activator of transcription 3; experiment: Inhibition of IL-6 induced STAT3 phosphorylation at Tyr705 residue in human MGC-803 cells at 40 nM preincubated for 24 hrs followed by IL-6 stimulation and measured after 30 min by Western blotting analysis; assay type: cell-based; details: time 24.5 hrs
[16] = target: T1, Signal transducer and activator of transcription 3; experiment: Inhibition of phosphorylated STAT3 nuclear translocation at Tyr705 residue in human MKN-45 cells measured at 5 to 40 nM by immunoblotting analysis; assay type: cell-based; details: dose 5-40 nM
MKN-45 [17] = experiment: Inhibition of mitochondrial respiration in human MKN-45 cells assessed as maximal oxygen consumption rate at 1 to 100 nM incubated for 1 hr by Seahorse XF24 extracellular flux analyzer; assay type: functional, cell-based; details: dose 1-100 nM
MKN-45 [18] = experiment: Inhibition of mitochondrial respiration in STAT3 knockdown human MKN-45 cells assessed as basal oxygen consumption rate incubated for 80 mins […]; assay type: functional, cell-based
GES1 = experiment: Antiproliferative activity against human GES1 cells assessed as cell viability measured upto 1 uM incubated for 72 hrs by MTS assay; assay type: toxicity, cell-based; details: ges1, 72 h
NIH3T3 = experiment: Antiproliferative activity against […] cells assessed as cell viability measured upto 1 uM incubated for 72 hrs by MTS assay; assay type: toxicity, cell-based; details: mouse, nih3t3, 72 h
MKN-45 [19] = experiment: Inhibition of colony formation in human MKN-45 cells assessed as reduction in number of colonies incubated for 5 to 7 days by crystal violet staining based assay; assay type: functional, cell-based; details: dose <= 20.0 nM, time 5-7 day, DDE = dose-dependent effect
MKN-45 [20] = experiment: Induction of apoptosis in human MKN-45 cells assessed as late apoptic cells 5 nM incubated for 48 hrs by FITC-annexin V/propidium iodide staining based flow cytometry (reference value: 17.9%); assay type: functional
MKN-45 [21] = experiment: Induction of apoptosis in human MKN-45 cells assessed as early apoptic cells 20 nM incubated for 48 hrs by FITC-annexin V/propidium iodide staining based flow cytometry (reference value: 2.79%); assay type: functional
AGS [22] = experiment: Induction of apoptosis in human AGS cells assessed as viable cells at 10 nM incubated for 48 hrs by FITC-annexin V/propidium iodide staining based flow cytometry (reference value: 87.2%); assay type: functional; details: read-out: Activity
AGS [23] = experiment: Induction of apoptosis in human AGS cells assessed as late apoptic cells 10 nM incubated for 48 hrs by FITC-annexin V/propidium iodide staining based flow cytometry (reference value: 9.56%); assay type: functional
AGS [24] = experiment: Induction of apoptosis in human AGS cells assessed as late apoptic cells 20 nM incubated for 48 hrs by FITC-annexin V/propidium iodide staining based flow cytometry (reference value: 9.56%); assay type: functional
[25] = Clearance in ICR mouse plasma at 1 mg/kg, iv measured up to 24 hrs by LC-MS/MS analysis; assay type: ADME, organism-based
AGS [26] = experiment: Inhibition of colony formation in STAT3 knockdown human AGS cells assessed as reduction in number of colonies incubated for 5 to 7 days by crystal violet staining based assay; assay type: functional, cell-based; details: time 5-7 day
MKN-45 [27] = experiment: Inhibition of colony formation in STAT3 knockdown human MKN-45 cells assessed as reduction in number of colonies incubated for 5 to 7 days by crystal violet staining based assay; assay type: functional, cell-based; details: time 5-7 day
MGC-803 = experiment: Inhibition of colony formation in STAT3 knockdown human MGC-803 cells assessed as reduction in number of colonies incubated for 5 to 7 days by crystal violet staining based assay; assay type: functional, cell-based; details: time 5-7 day
MKN-45 [28] = experiment: Antitumor activity against human MKN-45 cells xenografted in po dosed BALB/c nude mouse assessed as decrease in tumor volume measured for 5 weeks; assay type: functional, organism-based; details: dose 25-50 mg/kg, DDE = dose-dependent effect
MKN-45 [29] = experiment: In vivo inhibition of STAT3 in human MKN-45 cells xenografted in BALB/c nude mouse assessed as reduction in STAT3 gene expression at 25 to 50 mg/kg, po qd administered for 5 weeks by Western blot analysis; assay type: functional, organism-based; details: dose 25-50 mg/kg
[30] = Toxicity in BALB/c nude mouse xenografted with human MKN-45 cells assessed as kidney damage at 25 to 50 mg/kg, po qd administered for 5 weeks by H and E staining based analysis; assay type: organism-based; details: in vivo, 840 h, dose 25-50 mg/kg
[31] = Toxicity in BALB/c nude mouse assessed as body weight loss at 25 to 50 mg/kg, po qd administered for 5 weeks; assay type: organism-based; details: in vivo, 840 h, dose 25-50 mg/kg
[32] = Toxicity in […] mouse xenografted with human MKN-45 cells assessed as kidney damage at 25 to 50 mg/kg, po qd administered for 5 weeks by H and E staining based analysis; assay type: organism-based; details: in vivo, 840 h, dose 25-50 mg/kg

- inhibition [2]: 100%
- inhibition [3]: Dde
- inhibition [4]: Dde
- inhibition [5]: Tde
- IC50 [6]: > 10 µM
- IC50 [7]: > 10 µM
- inhibition [8]: Dde
- inhibition [9]: Dde
- inhibition [10]: Dde
- inhibition [11]: Active
- inhibition [12]: Active
- inhibition [13]: Active
- inhibition [14]: Active
- inhibition [15]: Active
- inhibition [16]: Active
- clearance [25]: 7.33 mL/min/kg
Compound: O=C(c1ccc(-c2noc(-c3ccc(C(F)(F)F)cc3)n2)cc1)N1CCN(Cc2ccc(OCC(F)(F)F)cc2)CC1
- Activity [1]: Non-Toxic
- inhibition (MKN-45 [17]): Active
- inhibition (MKN-45 [18]): Active
- Activity (GES1): Non-Toxic
- Activity (NIH3T3): Non-Toxic
- inhibition (MKN-45 [19]): Dde
- Activity (MKN-45 [20]): 17.1%
- Activity (MKN-45 [21]): 5.06%
- viability at 0.01 µM (AGS [22]): 82.3%
- Activity (AGS [23]): 10.4%
- Activity (AGS [24]): 27.1%
- inhibition (AGS [26]): Active
- inhibition (MKN-45 [27]): Active
- inhibition (MGC-803): Active
- Activity (MKN-45 [28]): Dde
- inhibition (MKN-45 [29]): Active
- Activity [30]: Non-Toxic
- Activity [31]: Non-Toxic
- Activity [32]: Non-Toxic
